Results: the supplement of paper PMC10307832

Key:
Experiment in all cases: relative viability (nuclei count vs DMSO), 5 days (fraction); higher = more cells survive
Ricolinostat + Foretinib = compound: O=C(CCCCCCNC(=O)c1cnc(N(c2ccccc2)c2ccccc2)nc1)NO [Ricolinostat] + COc1cc2c(Oc3ccc(NC(=O)C4(C(=O)Nc5ccc(F)cc5)CC4)cc3F)ccnc2cc1OCCCN1CCOCC1 [Foretinib] (partner 0.25 µM)
In short: (§1)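 Lung cancer cell lines, seeded in 1536-well plates, were treated the following day by pin tool with a single drug or with five library-drug doses (not always all listed) in √10 steps on top of a fixed anchor-drug dose. Cells were fixed and nuclei stained in one step after 5 days, and nuclei were counted. Relative viability is the nuclei count for treated wells divided by that for vehicle wells, reported as medians of duplicate plates.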

Ricolinostat + Dasatinib = compound: O=C(CCCCCCNC(=O)c1cnc(N(c2ccccc2)c2ccccc2)nc1)NO [Ricolinostat] + Cc1nc(Nc2ncc(C(=O)Nc3c(C)cccc3Cl)s2)cc(N2CCN(CCO)CC2)n1 [Dasatinib] (partner 0.075 µM)
In short: as §1

TGX 221 + AZD7762 = compound: CC1=CN2C(=O)C=C(N=C2C(=C1)C(C)NC3=CC=CC=C3)N4CCOCC4 [TGX 221] + NC(=O)Nc1cc(-c2cccc(F)c2)sc1C(=O)N[C@H]1CCCNC1 [AZD7762] (partner 0.2 µM)
In short: as §1

[1] = compound: C1=CC=C(C(=C1)C2=CC=C(C=C2)C3=CSC4=C3C(=C(C(=O)N4)C#N)O)O + Nc1nc2[nH]cc(CCc3ccc(C(=O)N[C@@H](CCC(=O)O)C(=O)O)cc3)c2c(=O)[nH]1 [Pemetrexed] (partner 0.2 µM)
In short: as §1

Cell Line	relative viability (Ricolinostat + Foretinib; first compound 0.08 µM)	relative viability (Ricolinostat + Foretinib; first compound 0.253 µM)	relative viability (Ricolinostat + Foretinib; first compound 0.8 µM)	relative viability (Ricolinostat + Foretinib; first compound 2.53 µM)	relative viability (Ricolinostat + Dasatinib; first compound 0.08 µM)	relative viability (Ricolinostat + Dasatinib; first compound 0.253 µM)	relative viability (Ricolinostat + Dasatinib; first compound 0.8 µM)	relative viability (Ricolinostat + Dasatinib; first compound 2.53 µM)	relative viability (TGX 221 + AZD7762; first compound 0.08 µM)	relative viability (TGX 221 + AZD7762; first compound 0.253 µM)	relative viability (TGX 221 + AZD7762; first compound 0.8 µM)	relative viability (TGX 221 + AZD7762; first compound 2.53 µM)	relative viability (TGX 221 + AZD7762; first compound 8 µM)	relative viability ([1]; first compound 0.08 µM)	relative viability ([1]; first compound 0.253 µM)	relative viability ([1]; first compound 0.8 µM)	relative viability ([1]; first compound 2.53 µM)	relative viability ([1]; first compound 8 µM)
LXF-289	0.987	0.895	0.947	0.967	0.193	0.274	0.272	0.306	1.12	1.12	1.06	1.03	1.08	0.818	0.871	0.909	0.926	0.89
NCI-H23	0.999	0.898	0.97	1.13	0.667	0.786	0.698	0.47	0.277	0.213	0.269	0.217	0.201	0.536	0.619	0.59	0.627	0.653
NCI-H322M	–	0.964	0.893	0.928	–	0.275	0.26	0.255	0.578	0.569	0.636	0.571	0.546	0.561	0.574	0.657	0.576	0.559
NCI-H358	0.594	0.636	0.631	0.503	0.164	0.168	0.146	0.187	0.497	0.631	0.462	0.58	0.515	0.156	0.188	0.175	0.162	0.176
NCI-H441	–	0.878	0.872	0.921	–	0.586	0.601	0.538	1.22	1.12	0.925	1.07	1.24	0.26	0.282	0.232	0.237	0.267
NCI-H460	0.972	0.927	1.04	1.04	0.319	0.459	0.444	0.42	0.564	0.632	0.559	0.665	0.655	0.0846	0.0612	0.0666	0.0616	0.0618
NCI-H596	0.922	0.825	0.857	0.924	0.586	0.553	0.613	0.494	1.05	0.904	1.11	0.942	1.03	0.532	0.545	0.544	0.44	0.488
NCI-H647	1	1	1.01	1.02	0.109	0.144	0.181	0.246	0.324	0.448	0.407	0.278	0.328	–	0.18	0.16	0.17	0.189
NCI-H650	0.957	0.997	0.872	0.8	0.36	0.463	0.365	0.314	0.769	0.902	0.926	1.12	0.904	0.944	1.05	0.972	0.979	0.862
NCI-H838	0.9	1.07	1.06	0.941	–	0.318	0.287	0.452	0.892	0.911	0.877	0.77	0.849	0.209	0.291	0.253	0.233	0.243
NCI-H1355	0.953	0.978	0.976	0.873	0.588	0.69	0.645	0.62	0.691	0.679	0.775	0.65	0.675	1.01	1.12	1.13	1.04	1.11
NCI-H1395	–	0.954	1.07	1.06	–	0.383	0.368	0.403	0.398	0.383	0.385	0.413	0.39	–	0.841	0.776	0.812	0.894
NCI-H1437	1.12	1.28	1.17	1.05	0.398	0.511	0.337	0.279	1.11	1.12	1.11	1.07	1.01	0.301	0.371	0.324	0.323	0.323
NCI-H1651	0.852	0.812	0.746	0.776	0.414	0.544	0.428	0.4	0.384	0.468	0.439	0.414	0.368	0.386	0.62	0.513	0.617	0.549
NCI-H1666	0.967	1.01	1.02	0.914	0.804	0.875	0.827	0.622	0.784	0.861	0.923	0.8	0.802	0.796	0.833	0.894	0.865	0.761
NCI-H1734	0.728	0.85	0.915	0.926	0.463	0.516	0.51	0.571	0.526	0.464	0.499	0.609	0.496	0.396	0.403	0.462	0.401	0.448
NCI-H1755	0.853	0.925	0.903	0.91	0.368	0.386	0.472	0.449	0.338	0.391	0.399	0.409	0.371	0.463	0.469	0.545	0.439	0.714

Cell Line	relative viability (Ricolinostat + Foretinib; first compound 0.08 µM)	relative viability (Ricolinostat + Foretinib; first compound 0.253 µM)	relative viability (Ricolinostat + Foretinib; first compound 0.8 µM)	relative viability (Ricolinostat + Foretinib; first compound 2.53 µM)	relative viability (Ricolinostat + Dasatinib; first compound 0.08 µM)	relative viability (Ricolinostat + Dasatinib; first compound 0.253 µM)	relative viability (Ricolinostat + Dasatinib; first compound 0.8 µM)	relative viability (Ricolinostat + Dasatinib; first compound 2.53 µM)	relative viability (TGX 221 + AZD7762; first compound 0.08 µM)	relative viability (TGX 221 + AZD7762; first compound 0.253 µM)	relative viability (TGX 221 + AZD7762; first compound 0.8 µM)	relative viability (TGX 221 + AZD7762; first compound 2.53 µM)	relative viability (TGX 221 + AZD7762; first compound 8 µM)	relative viability ([1]; first compound 0.08 µM)	relative viability ([1]; first compound 0.253 µM)	relative viability ([1]; first compound 0.8 µM)	relative viability ([1]; first compound 2.53 µM)	relative viability ([1]; first compound 8 µM)
NCI-H1793	–	0.737	0.741	0.876	–	0.397	0.348	0.322	0.295	0.303	0.313	0.347	0.266	0.69	0.862	0.713	0.687	0.802
NCI-H1915	1.07	1.03	1.07	1.03	0.277	0.29	0.275	0.231	0.655	0.665	0.665	0.596	0.712	0.437	0.443	0.486	0.481	0.506
NCI-H1944	0.828	0.835	0.689	0.641	0.189	0.212	0.194	0.201	–	0.501	0.453	0.513	0.455	0.609	0.697	0.571	0.646	0.632
NCI-H1975	1.04	0.975	0.822	0.917	0.402	0.354	0.307	0.381	0.688	0.694	0.668	0.662	0.557	0.312	0.288	0.302	0.307	0.295
NCI-H1993	–	0.893	0.854	0.856	–	0.558	0.61	0.671	0.676	0.657	0.685	0.899	0.785	0.585	0.939	0.551	0.54	0.497
NCI-H2085	–	0.867	1.02	0.783	0.205	0.256	0.18	0.217	0.96	0.769	0.583	0.37	0.397	0.838	1.01	0.801	0.886	0.818
NCI-H2087	–	1.09	1.07	1.05	–	0.903	0.663	0.889	1.04	1.23	1.37	1.2	1.21	0.608	0.671	0.675	0.67	0.747
NCI-H2126	0.864	1.23	1.16	1	–	0.618	0.616	0.492	0.943	0.907	1.04	0.966	1.15	0.837	0.823	0.694	0.664	0.513
NCI-H2170	0.915	0.973	0.983	1.01	0.537	0.733	0.626	0.666	0.81	0.825	0.861	0.871	0.917	0.279	0.268	0.285	0.254	0.261
NCI-H2342	0.88	0.975	1.19	1.07	0.32	0.311	0.365	0.293	0.421	0.448	0.496	0.489	0.524	0.769	0.938	0.713	0.755	0.712
NCI-H2347	–	1.04	0.792	0.802	0.318	0.372	0.309	0.285	0.639	0.61	0.639	0.583	0.547	0.367	0.429	0.403	0.444	0.406
NCI-H2405	0.927	1.05	1.07	1.11	0.229	0.205	0.183	0.193	0.706	0.665	0.724	0.665	0.547	1.01	–	1.07	0.975	0.948
NCI-H3122	0.98	0.959	1.08	1.13	0.791	0.903	0.899	0.562	0.974	0.925	1.01	0.994	0.981	0.19	0.201	0.22	0.213	0.19
PC-3 [JPC-3]	–	0.933	0.969	0.827	–	0.905	0.993	0.903	0.689	0.72	0.817	0.755	0.758	1.08	1.19	1.06	0.942	0.98
PC-14	0.954	0.898	0.892	0.828	0.243	0.248	0.267	0.233	0.316	0.329	0.34	0.33	0.289	0.151	0.156	0.153	0.125	0.146
RERF-LC-KJ	0.842	0.795	0.88	0.802	0.743	0.759	0.748	0.518	0.909	0.926	0.965	0.863	0.949	0.468	0.521	0.485	0.441	0.552
SW 900	0.733	0.883	0.886	0.989	0.495	0.578	0.662	0.352	–	0.598	0.515	0.444	0.469	–	0.487	0.453	0.464	0.47
